Laboratory results reported in ChEMBL document CHEMBL5528033, “Peptide-Drug Conjugates: An Emerging Direction for the Next Generation of Peptide Therapeutics” (J Med Chem, 2024).
pKi: −log10 of the molar value. Starred links: 1 amine or outer side, 2 acyl side, 3 side chain; linkers in the order of their positions; H or OH if unused. Positions of bridges follow the written chain, without caps; N, C: chain ends. Non-standard residues stand in square brackets, D forms with d. Residues, ends and D or L forms follow the SMILES beside them. *: point of attachment. DAMPA = CN(Cc1cnc2nc(N)nc(N)c2n1)c1ccc(C(=O)*)cc1; γGlu = O=C(O)[C@H](CCC(=O)[*:2])N[*:1]; Pen = CC(C)(S)[C@H](N)C(=O)O

Experiments:
[1] = Binding affinity to Dengue virus NS2B-NS3 protease assessed as inhibition constant
[2] = target: Kappa-type opioid receptor (Mus musculus, UniProt P33534); test: Displacement of [3H]DPN from mouse KOR stably expressed in HEK293T cell membrane assessed as inhibition constant by radioligand binding assay; assay type: cell membranes
Sequence of Kappa-type opioid receptor (P33534 whole entry): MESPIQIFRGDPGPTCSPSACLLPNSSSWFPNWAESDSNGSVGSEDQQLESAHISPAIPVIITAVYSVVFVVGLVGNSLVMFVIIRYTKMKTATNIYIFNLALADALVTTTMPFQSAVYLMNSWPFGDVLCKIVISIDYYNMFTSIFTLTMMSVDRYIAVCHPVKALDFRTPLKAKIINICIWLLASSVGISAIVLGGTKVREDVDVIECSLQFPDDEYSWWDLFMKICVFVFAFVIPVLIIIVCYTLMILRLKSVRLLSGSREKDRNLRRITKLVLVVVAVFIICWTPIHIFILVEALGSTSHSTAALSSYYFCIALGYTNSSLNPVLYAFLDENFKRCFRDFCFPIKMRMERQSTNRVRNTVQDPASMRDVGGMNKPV

[3] = Stability of the compound assessed as half life at pH 6; assay type: physicochemical; settings: buffer
[4] = Stability in rat heart assessed as half life measured upto 120 mins; assay type: ADME, tissue-based
[5] = Stability in rat plasma assessed as half life measured upto 120 mins; assay type: ADME, cell-free

**Q.** With `CCCC[C@@H](NC(=O)[C@H](CCCCN)NC(=O)[C@H](CCCNC(=N)N)NC(=O)c1ccc(/C=C(\C#N)C(=O)NC2CC2)cc1)C(N)=O` as the molecule, how does the pKi [1] read?
**A.** 5.31

**Q.** With `C[C@H](O)[C@@H]1NC(=O)[C@H](Cc2ccc(O)cc2)NC(=O)[C@@H](C)NC(=O)[C@@H](Cc2ccc(O)cc2)NC(=O)CSC[C@@H](C(=O)N[C@@H](C(=O)N[C@H](Cc2ccccc2)C(=O)N[C@@H]2CCC3C4Cc5ccc(O)c6c5C3(CCN4C)[C@H]2O6)[C@@H](C)O)NC(=O)[C@H]([C@H](C)O)NC1=O` (stereo partly specified) as the molecule, how does the pKi [2] read?
**A.** 7.14

**Q.** With `CC(C)C[C@@H]1NC(=O)[C@H](C(C)C)NC(=O)[C@H](CO)NC(=O)CNC(=O)CNC(=O)[C@H](CCCNC(=N)N)NC(=O)[C@@H]2CCCN2C(=O)[C@@H](NC(=O)CC[C@H](NC(=O)c2ccc(N(C)Cc3cnc4nc(N)nc(N)c4n3)cc2)C(=O)O)C(C)(C)SSC[C@@H](C(=O)O)NC(=O)CNC(=O)[C@H]([C@@H](C)O)NC(=O)[C@H](C(C)C)NC1=O` ({DAMPA-γGlu}-[Pen]PRGGSVLVTGC-OH; disulfide 1-12) as the molecule, how does the half-life [3] read?
**A.** 770 min

**Q.** What about the half-life [4] of the same molecule?
**A.** 38.1 min

**Q.** And the half-life [5]?
**A.** 43.8 min

**Q.** With `C=CCN1CCC23c4c5ccc(O)c4O[C@H]2[C@H](NC(=O)[C@@H](Cc2ccccc2)NC(=O)[C@H](NC(=O)[C@@H]2CSCC(=O)N[C@H](Cc4ccc(O)cc4)C(=O)N[C@H](C)C(=O)N[C@@H](Cc4ccc(O)cc4)C(=O)N[C@@H]([C@H](C)O)C(=O)N[C@@H]([C@H](C)O)C(=O)N2)[C@@H](C)O)CCC3C1C5` (stereo partly specified) as the molecule, how does the pKi [2] read?
**A.** 8.41
